How the values were obtained:
[1] = target: Insulin-like growth factor 1 receptor (Homo sapiens) (UniProt P08069); settings: Compound concentration 100.0 nM
[2] = target: Serine/threonine-protein kinase haspin (Homo sapiens) (UniProt Q8TF76); settings: Compound concentration 100.0 nM
[3] = target: Receptor tyrosine-protein kinase erbB-4 (Homo sapiens) (UniProt Q15303); settings: Compound concentration 100.0 nM
[4] = target: Non-receptor tyrosine-protein kinase TNK1 (Homo sapiens) (UniProt Q13470); settings: Compound concentration 100.0 nM
Non-receptor tyrosine-protein kinase TNK1 (Homo sapiens), sequence (Q13470 whole entry): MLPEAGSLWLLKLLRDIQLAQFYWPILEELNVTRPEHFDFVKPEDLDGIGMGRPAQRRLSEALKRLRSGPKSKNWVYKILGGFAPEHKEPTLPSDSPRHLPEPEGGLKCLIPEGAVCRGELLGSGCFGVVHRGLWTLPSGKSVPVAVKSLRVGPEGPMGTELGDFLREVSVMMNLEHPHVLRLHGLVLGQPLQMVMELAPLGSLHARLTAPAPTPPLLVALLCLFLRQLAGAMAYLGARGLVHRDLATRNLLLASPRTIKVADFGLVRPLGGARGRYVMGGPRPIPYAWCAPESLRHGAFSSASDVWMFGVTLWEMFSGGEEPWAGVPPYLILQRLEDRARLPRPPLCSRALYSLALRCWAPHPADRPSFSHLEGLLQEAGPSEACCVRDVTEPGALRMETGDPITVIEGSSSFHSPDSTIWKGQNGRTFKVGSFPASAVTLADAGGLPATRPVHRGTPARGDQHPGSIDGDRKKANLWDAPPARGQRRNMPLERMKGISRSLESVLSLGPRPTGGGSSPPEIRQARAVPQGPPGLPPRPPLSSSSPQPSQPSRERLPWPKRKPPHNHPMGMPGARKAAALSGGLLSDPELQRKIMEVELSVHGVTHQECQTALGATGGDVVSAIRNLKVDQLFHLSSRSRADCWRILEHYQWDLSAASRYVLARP

[5] = target: Misshapen-like kinase 1 (Homo sapiens) (UniProt Q8N4C8); settings: Compound concentration 100.0 nM
[6] = tested on: Phosphatidylinositol 4,5-bisphosphate 3-kinase catalytic subunit alpha isoform (Homo sapiens), P42336 [E542K]; settings: Compound concentration 100.0 nM
[7] = target: 5-hydroxytryptamine receptor 3A (Homo sapiens) (UniProt P46098); settings: Compound concentration 10.0 uM
[8] = target: Serine/threonine-protein kinase 32A (Homo sapiens) (UniProt Q8WU08); settings: Compound concentration 100.0 nM
Serine/threonine-protein kinase 32A (Homo sapiens), sequence (Q8WU08 whole entry): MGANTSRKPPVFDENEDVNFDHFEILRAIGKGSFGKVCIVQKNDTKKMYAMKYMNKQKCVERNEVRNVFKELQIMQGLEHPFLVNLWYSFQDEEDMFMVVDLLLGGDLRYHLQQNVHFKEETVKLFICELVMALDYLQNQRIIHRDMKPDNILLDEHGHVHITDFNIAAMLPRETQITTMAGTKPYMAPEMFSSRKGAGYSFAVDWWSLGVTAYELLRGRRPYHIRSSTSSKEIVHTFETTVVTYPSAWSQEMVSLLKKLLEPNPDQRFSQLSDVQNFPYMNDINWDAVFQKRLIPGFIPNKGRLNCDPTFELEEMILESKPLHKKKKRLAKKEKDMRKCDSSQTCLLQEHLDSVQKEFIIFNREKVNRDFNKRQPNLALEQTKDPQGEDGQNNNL

[9] = target: Tyrosine-protein kinase HCK (Homo sapiens) (UniProt P08631); settings: Compound concentration 100.0 nM
Tyrosine-protein kinase HCK (Homo sapiens), sequence (P08631 2-526 limits assumed): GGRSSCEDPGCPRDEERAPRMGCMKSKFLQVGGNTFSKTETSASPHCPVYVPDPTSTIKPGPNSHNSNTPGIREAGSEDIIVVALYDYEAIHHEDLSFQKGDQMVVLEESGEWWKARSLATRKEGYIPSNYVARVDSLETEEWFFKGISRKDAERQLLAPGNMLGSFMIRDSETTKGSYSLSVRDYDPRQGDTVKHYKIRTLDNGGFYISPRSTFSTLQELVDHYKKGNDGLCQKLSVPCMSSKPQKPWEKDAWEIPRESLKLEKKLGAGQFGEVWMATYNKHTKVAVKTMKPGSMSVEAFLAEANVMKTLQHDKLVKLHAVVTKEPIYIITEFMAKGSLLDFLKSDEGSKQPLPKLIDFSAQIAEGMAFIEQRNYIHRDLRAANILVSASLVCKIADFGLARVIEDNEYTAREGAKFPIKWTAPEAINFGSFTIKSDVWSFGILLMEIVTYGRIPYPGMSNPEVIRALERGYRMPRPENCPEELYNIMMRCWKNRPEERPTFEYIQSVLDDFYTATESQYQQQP

[10] = target: T1, Dual specificity mitogen-activated protein kinase kinase 6 (Homo sapiens) (UniProt P52564); settings: Compound concentration 100.0 nM
T1 sequence (whole entry): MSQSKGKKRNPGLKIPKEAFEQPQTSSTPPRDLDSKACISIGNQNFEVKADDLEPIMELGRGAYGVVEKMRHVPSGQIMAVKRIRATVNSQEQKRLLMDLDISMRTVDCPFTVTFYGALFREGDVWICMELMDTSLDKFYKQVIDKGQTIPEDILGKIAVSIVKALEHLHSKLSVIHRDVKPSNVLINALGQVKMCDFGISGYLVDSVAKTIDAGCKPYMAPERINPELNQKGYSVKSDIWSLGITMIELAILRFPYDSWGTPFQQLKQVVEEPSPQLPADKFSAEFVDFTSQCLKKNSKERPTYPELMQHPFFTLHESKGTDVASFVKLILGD

[11] = target: Serine/threonine-protein kinase N2 (Homo sapiens) (UniProt Q16513); settings: Compound concentration 100.0 nM
[12] = target: Serine/threonine-protein kinase Nek10 (Homo sapiens) (UniProt Q6ZWH5); settings: Compound concentration 100.0 nM
[13] = target: Serine/threonine-protein kinase 24 (Homo sapiens) (UniProt Q9Y6E0); settings: Compound concentration 100.0 nM
[14] = target: Mitogen-activated protein kinase kinase kinase kinase 1 (Homo sapiens) (UniProt Q92918); settings: Compound concentration 100.0 nM
Mitogen-activated protein kinase kinase kinase kinase 1 (Homo sapiens), sequence (Q92918 whole entry, looked up): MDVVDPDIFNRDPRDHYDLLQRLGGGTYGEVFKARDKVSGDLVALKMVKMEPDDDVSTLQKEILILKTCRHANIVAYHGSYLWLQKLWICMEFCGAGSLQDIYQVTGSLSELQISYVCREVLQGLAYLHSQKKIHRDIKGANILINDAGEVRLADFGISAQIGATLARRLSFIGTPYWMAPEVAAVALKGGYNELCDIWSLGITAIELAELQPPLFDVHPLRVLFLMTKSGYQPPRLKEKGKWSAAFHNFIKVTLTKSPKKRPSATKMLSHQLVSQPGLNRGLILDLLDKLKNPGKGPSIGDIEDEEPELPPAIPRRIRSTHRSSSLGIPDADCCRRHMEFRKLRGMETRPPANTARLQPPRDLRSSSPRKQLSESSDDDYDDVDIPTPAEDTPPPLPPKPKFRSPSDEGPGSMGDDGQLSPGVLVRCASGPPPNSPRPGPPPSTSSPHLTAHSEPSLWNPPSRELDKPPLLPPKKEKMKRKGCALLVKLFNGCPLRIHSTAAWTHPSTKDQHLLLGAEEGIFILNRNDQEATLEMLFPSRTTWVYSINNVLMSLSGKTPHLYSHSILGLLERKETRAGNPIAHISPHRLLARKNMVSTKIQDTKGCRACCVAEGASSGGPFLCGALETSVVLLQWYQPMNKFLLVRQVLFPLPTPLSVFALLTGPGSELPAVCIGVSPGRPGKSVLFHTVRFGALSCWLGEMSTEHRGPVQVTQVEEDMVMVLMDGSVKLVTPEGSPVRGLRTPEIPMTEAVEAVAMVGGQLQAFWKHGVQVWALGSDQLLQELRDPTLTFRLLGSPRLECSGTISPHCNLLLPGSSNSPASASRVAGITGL

[15] = target: Alpha-1B adrenergic receptor (Homo sapiens) (UniProt P35368); settings: Compound concentration 10.0 uM
[16] = target: Cyclin-dependent kinase 4 (Homo sapiens) (UniProt P11802); settings: Compound concentration 100.0 nM
[17] = target: Tyrosine-protein kinase Tec (Homo sapiens) (UniProt P42680); settings: Compound concentration 100.0 nM
Tyrosine-protein kinase Tec (Homo sapiens), sequence (P42680 whole entry, the tested form may be a part): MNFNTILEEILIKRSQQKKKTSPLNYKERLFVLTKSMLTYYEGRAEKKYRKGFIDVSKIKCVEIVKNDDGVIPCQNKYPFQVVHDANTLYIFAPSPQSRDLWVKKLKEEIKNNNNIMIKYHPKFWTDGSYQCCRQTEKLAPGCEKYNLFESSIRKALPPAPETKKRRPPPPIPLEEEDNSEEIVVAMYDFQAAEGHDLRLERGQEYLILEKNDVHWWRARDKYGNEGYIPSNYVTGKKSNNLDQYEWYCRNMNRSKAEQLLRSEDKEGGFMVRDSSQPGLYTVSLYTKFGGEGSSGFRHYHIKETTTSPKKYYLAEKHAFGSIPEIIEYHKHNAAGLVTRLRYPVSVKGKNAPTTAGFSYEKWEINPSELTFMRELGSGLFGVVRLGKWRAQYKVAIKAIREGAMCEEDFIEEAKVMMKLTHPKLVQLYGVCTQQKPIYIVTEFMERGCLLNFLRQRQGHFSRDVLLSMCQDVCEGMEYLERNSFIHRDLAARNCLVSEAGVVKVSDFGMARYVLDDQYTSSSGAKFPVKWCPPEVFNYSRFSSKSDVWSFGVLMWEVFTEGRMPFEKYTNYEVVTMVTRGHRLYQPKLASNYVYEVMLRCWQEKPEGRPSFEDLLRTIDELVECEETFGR

[18] = target: Epithelial discoidin domain-containing receptor 1 (Homo sapiens) (UniProt Q08345); settings: Compound concentration 100.0 nM
[19] = target: Cyclin-G-associated kinase (Homo sapiens) (UniProt O14976); settings: Compound concentration 100.0 nM
[20] = target: Cyclin-dependent kinase 5 (Homo sapiens) (UniProt Q00535); settings: Compound concentration 100.0 nM
[21] = target: Phosphatidylinositol 4-phosphate 3-kinase C2 domain-containing subunit beta (Homo sapiens) (UniProt O00750); settings: Compound concentration 100.0 nM
[22] = target: Myosin-IIIa (Homo sapiens) (UniProt Q8NEV4); settings: Compound concentration 100.0 nM
[23] = target: Serine/threonine-protein kinase Sgk2 (Homo sapiens) (UniProt Q9HBY8); settings: Compound concentration 100.0 nM
[24] = target: Ephrin type-A receptor 6 (Homo sapiens) (UniProt Q9UF33); settings: Compound concentration 100.0 nM
[25] = target: Muscarinic acetylcholine receptor M3 (Homo sapiens) (UniProt P20309); settings: Compound concentration 10.0 uM
[26] = target: Protein-tyrosine kinase 2-beta (Homo sapiens) (UniProt Q14289); settings: Compound concentration 100.0 nM
Protein-tyrosine kinase 2-beta (Homo sapiens), sequence (Q14289 whole entry, looked up, canonical isoform): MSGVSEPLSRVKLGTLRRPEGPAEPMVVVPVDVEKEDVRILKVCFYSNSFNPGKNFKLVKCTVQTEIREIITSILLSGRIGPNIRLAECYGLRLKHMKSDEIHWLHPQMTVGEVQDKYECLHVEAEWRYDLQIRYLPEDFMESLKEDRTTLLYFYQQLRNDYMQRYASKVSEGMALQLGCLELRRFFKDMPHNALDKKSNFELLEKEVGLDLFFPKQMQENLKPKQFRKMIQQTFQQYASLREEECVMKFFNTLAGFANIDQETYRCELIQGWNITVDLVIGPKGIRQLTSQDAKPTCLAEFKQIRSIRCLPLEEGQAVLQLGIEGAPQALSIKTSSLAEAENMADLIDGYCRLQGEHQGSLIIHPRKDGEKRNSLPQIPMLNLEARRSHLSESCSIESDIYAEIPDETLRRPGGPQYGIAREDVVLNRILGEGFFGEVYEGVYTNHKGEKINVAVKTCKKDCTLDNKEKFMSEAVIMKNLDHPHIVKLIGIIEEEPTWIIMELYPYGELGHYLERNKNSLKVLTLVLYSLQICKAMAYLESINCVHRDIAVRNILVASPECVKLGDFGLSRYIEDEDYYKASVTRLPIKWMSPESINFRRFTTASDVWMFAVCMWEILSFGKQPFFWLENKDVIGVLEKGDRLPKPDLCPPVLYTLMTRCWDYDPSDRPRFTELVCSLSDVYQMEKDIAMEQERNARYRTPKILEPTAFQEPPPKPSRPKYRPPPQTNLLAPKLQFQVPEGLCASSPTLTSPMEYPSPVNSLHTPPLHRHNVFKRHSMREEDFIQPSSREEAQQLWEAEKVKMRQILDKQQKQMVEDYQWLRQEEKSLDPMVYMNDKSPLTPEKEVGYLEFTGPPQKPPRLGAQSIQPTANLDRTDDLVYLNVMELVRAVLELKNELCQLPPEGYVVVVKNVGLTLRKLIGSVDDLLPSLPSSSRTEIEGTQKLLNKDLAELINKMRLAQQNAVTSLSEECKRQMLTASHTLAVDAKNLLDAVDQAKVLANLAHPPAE

[27] = tested on: Phosphatidylinositol 4,5-bisphosphate 3-kinase catalytic subunit alpha isoform (Homo sapiens), P42336 [M1043I]; settings: Compound concentration 100.0 nM
[28] = target: Calcium/calmodulin-dependent protein kinase type 1B (Homo sapiens) (UniProt Q6P2M8); settings: Compound concentration 100.0 nM
[29] = target: Serine/threonine-protein kinase tousled-like 2 (Homo sapiens) (UniProt Q86UE8); settings: Compound concentration 100.0 nM
[30] = target: 5'-AMP-activated protein kinase catalytic subunit alpha-1 (Homo sapiens) (UniProt Q13131); settings: Compound concentration 100.0 nM
[31] = target: Phosphatidylinositol 4-kinase beta (Homo sapiens) (UniProt Q9UBF8); settings: Compound concentration 100.0 nM
[32] = target: Rhodopsin kinase GRK1 (Homo sapiens) (UniProt Q15835); settings: Compound concentration 100.0 nM
[33] = target: Tyrosine-protein kinase JAK3 (Homo sapiens) (UniProt P52333); settings: Compound concentration 100.0 nM

Serine/threonine-protein kinase haspin (Homo sapiens), sequence (Q8TF76 whole entry): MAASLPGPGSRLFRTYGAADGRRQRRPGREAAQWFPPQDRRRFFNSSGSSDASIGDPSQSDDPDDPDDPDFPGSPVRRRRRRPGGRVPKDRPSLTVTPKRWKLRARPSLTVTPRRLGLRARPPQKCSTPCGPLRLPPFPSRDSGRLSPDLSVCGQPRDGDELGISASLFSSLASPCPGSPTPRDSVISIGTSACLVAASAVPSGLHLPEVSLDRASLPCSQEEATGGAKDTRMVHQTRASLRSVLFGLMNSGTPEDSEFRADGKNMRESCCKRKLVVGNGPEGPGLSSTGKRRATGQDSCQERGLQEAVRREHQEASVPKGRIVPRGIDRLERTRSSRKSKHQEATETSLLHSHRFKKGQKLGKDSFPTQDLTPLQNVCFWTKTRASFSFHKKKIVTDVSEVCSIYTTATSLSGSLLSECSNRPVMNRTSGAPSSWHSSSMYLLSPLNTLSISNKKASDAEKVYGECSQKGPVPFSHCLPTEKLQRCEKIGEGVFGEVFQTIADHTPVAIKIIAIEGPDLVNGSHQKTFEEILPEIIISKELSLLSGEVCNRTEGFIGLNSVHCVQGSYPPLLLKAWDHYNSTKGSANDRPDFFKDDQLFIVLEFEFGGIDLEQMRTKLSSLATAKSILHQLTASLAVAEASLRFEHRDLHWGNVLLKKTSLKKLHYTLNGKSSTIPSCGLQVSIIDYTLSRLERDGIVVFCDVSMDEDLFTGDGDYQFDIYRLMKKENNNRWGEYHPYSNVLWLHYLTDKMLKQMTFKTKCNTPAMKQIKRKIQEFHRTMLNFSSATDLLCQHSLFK

Cc1c[nH]c2nccc(Oc3c(F)cc(Nc4cc(Cl)nc(N)n4)cc3F)c12 [BAY-549]
inactive: residual activity [1] 86% | residual activity [2] 61% | residual activity [3] 100% | residual activity [4] 100% | residual activity [5] 100% | residual activity [6] 85% | inhibition [7] 0.5% | residual activity [8] 86% | residual activity [9] 100% | residual activity [10] 99% | residual activity [11] 100% | residual activity [12] 75% | residual activity [13] 100% | residual activity [14] 73% | inhibition [15] 17% | residual activity [16] 100% | residual activity [17] 86% | residual activity [18] 100% | residual activity [19] 100% | residual activity [20] 94% | residual activity [21] 88% | residual activity [22] 95% | residual activity [23] 69% | residual activity [24] 100% | inhibition [25] -0.34% | residual activity [26] 90% | residual activity [27] 66% | residual activity [28] 94% | residual activity [29] 95% | residual activity [30] 100% | residual activity [31] 97% | residual activity [32] 82% | residual activity [33] 92%

Cn1cc(Cl)c2c(Oc3c(F)cc(Nc4cc(Cl)nc(N)n4)cc3F)ccnc21 [BAY-4900]
inactive: residual activity [1] 97% | residual activity [2] 74% | residual activity [3] 97% | residual activity [4] 100% | residual activity [5] 93% | residual activity [6] 89% | inhibition [7] 4.46% | residual activity [8] 89% | residual activity [9] 100% | residual activity [10] 100% | residual activity [11] 75% | residual activity [12] 66% | residual activity [13] 100% | residual activity [14] 82% | inhibition [15] 18.3% | residual activity [16] 100% | residual activity [17] 100% | residual activity [18] 100% | residual activity [19] 100% | residual activity [20] 100% | residual activity [21] 83% | residual activity [22] 100% | residual activity [23] 86% | residual activity [24] 100% | inhibition [25] -4.88% | residual activity [26] 100% | residual activity [27] 64% | residual activity [28] 90% | residual activity [29] 100% | residual activity [30] 100% | residual activity [31] 100% | residual activity [32] 92% | residual activity [33] 94%
